Assay results: patent US12134610B2, “Somatostatin subtype-2 receptor (SST2R) targeted therapeutics and uses thereof” (priority 2022, dated 2024)
Like-named read-outs stand apart in the source and are kept apart here. Starred links: 1 amine or outer side, 2 acyl side, 3 side chain; linkers in the order of their positions; H or OH if unused. Non-standard residues stand in square brackets, D forms with d. Residues, ends and D or L forms follow the SMILES beside them. *: point of attachment. X1 = Cc1cc(F)cc(-c2cnc(NCCNC(=O)CCOCCC(=O)*)c(-c3nc4ccc(Cl)cc4[nH]3)c2N2CCC(N)CC2)c1; Dolaproine = CO[C@@H]([C@@H]1CCCN1)[C@@H](C)C(=O)O; Dil = CC[C@H](C)[C@H](NC)[C@@H](CC(=O)O)OC; PABC = O=C(OCc1ccc(N[*:1])cc1)[*:2]; X2 = C[C@@H](N*)[C@@H](O)c1ccccc1; Cya = N[C@@H](CS(=O)(=O)O)C(=O)O; Cit = NC(=O)NCCC[C@H](N)C(=O)O; NMeV = CN[C@H](C(=O)O)C(C)C

Key:
Assay type in all cases: cell-based
[1] = target: T1, human somatostatin receptor subtype 2 (Homo sapiens, UniProt P30874); experiment: Functional cAMP assay for SSTR2 agonists (HTRF) in CHO-K1 cells; conditions: CHO-K1 cells stably expressing human SST2, 20 min
T1 construct: expressed in transfected cells
Outline: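 CHO-K1 cells stably expressing receptor, plated 4 days before assay, treated 20 min at 37° C. with compound (typically 0-10,000 nM final) plus IBMX and 1.6 μM NKH477 to raise cAMP. HTRF read, 665/620 nm ratio; cAMP from standard curve, EC50 fitted.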

[2] = system: NCI-H524 (ATCC) human small cell lung cancer cells
Outline: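 NCI-H524 cells (5,000/well) were exposed 24 h after plating to SMDC for 2 h, 11-point two-fold series from 1 uM. After washout they grew a further 70 h. Proliferation was read by CellTiter-Glo luminescence, % inhibition taken vs untreated control, and IC50 fitted by four-parameter nonlinear regression.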

SST2 = target: T2, SST2 (Homo sapiens, UniProt P30874); experiment: PathHunter CHO-K1 SST2 internalization assay; conditions: PathHunter CHO-K1 SST2, 90 min
T2 construct: host or cells: PathHunter CHO-K1 SST2 cells
Outline: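 PathHunter CHO-K1 SST2 cells, seeded and grown 48 h, were exposed to 11-point 1:3 dilutions of SMDC (top final 10 uM) for 90 min at 37 C, 5% CO2. Beta-Glo luminescence was read after 60 min at room temperature. Background-corrected duplicate means were fitted by four-parameter nonlinear regression to give IC50.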

[3] = 2 h treatment, washout, additional 70 h, read-out: H524 EC50

T1 sequence (P30874 whole entry): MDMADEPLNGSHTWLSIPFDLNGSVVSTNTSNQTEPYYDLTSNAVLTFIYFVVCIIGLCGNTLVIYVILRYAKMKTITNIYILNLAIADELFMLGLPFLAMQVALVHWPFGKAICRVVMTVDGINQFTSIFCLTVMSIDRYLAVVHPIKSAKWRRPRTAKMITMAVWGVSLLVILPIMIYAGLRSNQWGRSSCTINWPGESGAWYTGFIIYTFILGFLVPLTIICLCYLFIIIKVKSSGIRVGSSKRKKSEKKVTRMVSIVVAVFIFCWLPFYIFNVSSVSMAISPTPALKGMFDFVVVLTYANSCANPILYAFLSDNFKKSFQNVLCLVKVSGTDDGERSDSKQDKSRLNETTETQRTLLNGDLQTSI
T2 sequence (P30874 whole entry): as above

Row | Compound | EC50 ([1]; read-out: hSST2 cAMP Avg EC50) [nM] | EC50 ([2]; 2 h) [nM] | EC50 (SST2; read-out: Internalization EC50) [nM] | EC50 ([1]; hSST2 cAMP Avg EC50 (nM)) [nM] | EC50 [2, 3] [nM] | EC50 (SST2; Internalization EC50 (nM)) [nM]
1 | COc1cc2cc(c1Cl)N(C)C(=O)C[C@H](OC(=O)[C@H](C)N(C)C(=O)CCSSCCNC(=O)CCOCCNC(=O)C[C@@H](N)C(=O)NCCNc1ncc(-c3cc(C)cc(F)c3)c(N3CCC(N)CC3)c1-c1nc3ccc(Cl)cc3[nH]1)[C@]1(C)O[C@H]1[C@H](C)[C@@H]1C[C@@](O)(NC(=O)O1)[C@H](OC)/C=C/C=C(\C)C2 [Compound 77] | 0.21 | 17 | 5.2 |  |  | 
2 | CC[C@@]1(O)C(=O)OCc2c1cc1n(c2=O)Cc2c-1nc1cc(F)c(C)c3c1c2[C@@H](NC(=O)CCOCCC(=O)NCCNc1ncc(-c2cc(C)cc(F)c2)c(N2CCC(N)CC2)c1-c1nc2ccc(Cl)cc2[nH]1)CC3 [Compound 78, N-{2-[4-(4-amino-1-piperidyl)-3-(6-chloro-1H-1,3-benzimidazol-2-yl)-5-(3-fluoro-5-tolyl)-2-pyridylamino]ethyl}3-(2-{N-(10S,23S)-10-ethyl-18-fluoro-10-hydroxy-19-methyl-5,9-dioxo-8-oxa-4,15-diazahexacyclo[14.7.1.0^2,^14.0^4,^13.0^6,^11.0^20,^24]tetracosa-1,6(11),12,14,16,18,20(24)-heptaen-23-ylcarbamoyl}ethoxy)propionamide] |  |  |  | 0.23 | 170 | 0.77
3 | CC[C@H](C)[C@@H]([C@@H](CC(=O)N1CCC[C@H]1[C@H](OC)[C@@H](C)C(=O)N[C@H](C)[C@@H](O)c1ccccc1)OC)N(C)C(=O)[C@@H](NC(=O)[C@H](C(C)C)N(C)C(=O)OCc1ccc(NC(=O)[C@H](CCCNC(N)=O)NC(=O)[C@@H](NC(=O)CCOCCC(=O)NCCNc2ncc(-c3cc(C)cc(F)c3)c(N3CCC(N)CC3)c2-c2nc3ccc(Cl)cc3[nH]2)C(C)C)cc1C(=O)NCCN)C(C)C [Compound 82] | 0.31 | 0.79 | 6 |  |  | 
4 | CC[C@H](C)[C@@H]([C@@H](CC(=O)N1CCC[C@H]1[C@H](OC)[C@@H](C)C(=O)N[C@H](C)[C@@H](O)c1ccccc1)OC)N(C)C(=O)[C@@H](NC(=O)[C@H](C(C)C)N(C)C(=O)OCc1ccc(NC(=O)[C@H](CCCNC(N)=O)NC(=O)[C@@H](NC(=O)[C@H](CS(=O)(=O)O)NC(=O)CCOCCC(=O)NCCNc2ncc(-c3cc(C)cc(F)c3)c(N3CCC(N)CC3)c2-c2nc3ccc(Cl)cc3[nH]2)C(C)C)cc1)C(C)C [Compound 83] (X1-[Cya]V[Cit][PABC][NMeV]V[Dil][Dolaproine]-X2) | 0.11 | 20 | 2.9 |  |  | 
5 | CC[C@H](C)[C@@H]([C@@H](CC(=O)N1CCC[C@H]1[C@H](OC)[C@@H](C)C(=O)N[C@H](C)[C@@H](O)c1ccccc1)OC)N(C)C(=O)[C@@H](NC(=O)[C@H](C(C)C)N(C)C(=O)OCc1ccc(NC(=O)[C@H](CCCNC(N)=O)NC(=O)[C@@H](NC(=O)CCOCCNCCNc2ncc(-c3cc(C)cc(F)c3)c(N3CCC(N)CC3)c2-c2nc3ccc(Cl)cc3[nH]2)C(C)C)cc1)C(C)C [Compound 84] | 0.51 | 24 | 9.7 |  |  | 
6 | CC[C@H](C)[C@@H]([C@@H](CC(=O)N1CCC[C@H]1[C@H](OC)[C@@H](C)C(=O)N[C@H](C)[C@@H](O)c1ccccc1)OC)N(C)C(=O)[C@@H](NC(=O)[C@H](C(C)C)N(C)C(=O)OCc1ccc(NC(=O)[C@H](C)NC(=O)[C@@H](NC(=O)CCOCCOCCOCCOCCC(=O)NCCNc2ncc(-c3cc(C)cc(F)c3)c(N3CCC(N)CC3)c2-c2nc3ccc(Cl)cc3[nH]2)C(C)C)cc1C(=O)NCCN)C(C)C [Compound 85] | 0.25 | 2.2 | 13 |  |  | 
7 | CC[C@H](C)[C@@H]([C@@H](CC(=O)N1CCC[C@H]1[C@H](OC)[C@@H](C)C(=O)N[C@H](C)[C@@H](O)c1ccccc1)OC)N(C)C(=O)[C@@H](NC(=O)[C@H](C(C)C)N(C)C(=O)OCc1ccc(NC(=O)[C@H](C)NC(=O)[C@@H](NC(=O)CCOCCC(=O)NCCNc2ncc(-c3cc(C)cc(F)c3)c(N3CCC(N)CC3)c2-c2nc3ccc(Cl)cc3[nH]2)C(C)C)cc1C(=O)NCCN)C(C)C [Compound 86] | 0.36 | 1.1 | 15 |  |  | 
8 | CC[C@H](C)[C@@H]([C@@H](CC(=O)N1CCC[C@H]1[C@H](OC)[C@@H](C)C(=O)N[C@H](C)[C@@H](O)c1ccccc1)OC)N(C)C(=O)[C@@H](NC(=O)[C@H](C(C)C)N(C)C(=O)OCc1ccc(NC(=O)[C@H](CCCNC(N)=O)NC(=O)[C@@H](CC(=O)CCOCCNCCNc2ncc(-c3cc(C)cc(F)c3)c(N3CCC(N)CC3)c2-c2nc3ccc(Cl)cc3[nH]2)C(C)C)cc1C(=O)NCCN)C(C)C [Compound 87] | 0.4 | 42 | 26 |  |  | 
9 | CC[C@@]1(O)C(=O)OCc2c1cc1n(c2=O)Cc2c-1nc1cc(F)c(C)c3c1c2[C@@H](NC(=O)OCc1ccc(NC(=O)[C@H](CCCNC(N)=O)NC(=O)[C@@H](NC(=O)CCOCCC(=O)NCCNc2ncc(-c4cc(C)cc(F)c4)c(N4CCC(N)CC4)c2-c2nc4ccc(Cl)cc4[nH]2)C(C)C)cc1)CC3 [Compound 88] |  |  |  | 0.3 | 55 | 1.3
10 | CC[C@H](C)[C@@H]([C@@H](CC(=O)N1CCC[C@H]1[C@H](OC)[C@@H](C)C(=O)N[C@H](C)[C@@H](O)c1ccccc1)OC)N(C)C(=O)[C@@H](NC(=O)[C@H](C(C)C)N(C)C(=O)OCc1ccc(NC(=O)[C@H](C)NC(=O)[C@@H](NC(=O)CCOCCNCCNc2ncc(-c3cc(C)cc(F)c3)c(N3CCC(N)CC3)c2-c2nc3ccc(Cl)cc3[nH]2)C(C)C)cc1C(=O)NCCN)C(C)C [Compound 89] | 0.71 | 60 | 66 |  |  | 
11 | CC[C@@]1(O)C(=O)OCc2c1cc1n(c2=O)Cc2c-1nc1cc(F)c(C)c3c1c2[C@@H](NC(=O)OCc1ccc(NC(=O)[C@H](CCCNC(N)=O)NC(=O)[C@@H](NC(=O)CCOCCC(=O)NCCNc2ncc(-c4cc(C)cc(F)c4)c(N4CCC(N)CC4)c2-c2nc4ccc(Cl)cc4[nH]2)C(C)C)cc1C(=O)NCCN)CC3 [Compound 90] |  |  |  | 0.22 | 71 | 4.8
12 | CC[C@@]1(O)C(=O)OCc2c1cc1n(c2=O)Cc2c-1nc1cc(F)c(C)c3c1c2[C@@H](NC(=O)OCc1ccc(NC(=O)[C@H](CCCNC(N)=O)NC(=O)[C@@H](NC(=O)CCOCCOCCOCCOCCC(=O)NCCNc2ncc(-c4cc(C)cc(F)c4)c(N4CCC(N)CC4)c2-c2nc4ccc(Cl)cc4[nH]2)C(C)C)cc1C(=O)NCCN)CC3 [Compound 91] |  |  |  | 0.18 | 190 | 5.6
13 | CC[C@H](C)[C@@H]([C@@H](CC(=O)N1CCC[C@H]1[C@H](OC)[C@@H](C)C(=O)N[C@H](C)[C@@H](O)c1ccccc1)OC)N(C)C(=O)[C@@H](NC(=O)[C@H](C(C)C)N(C)C(=O)OCc1ccc(NC(=O)[C@H](CCCNC(N)=O)NC(=O)[C@@H](NC(=O)CCOCCOCCOCCOCCNCCNc2ncc(-c3cc(C)cc(F)c3)c(N3CCC(N)CC3)c2-c2nc3ccc(Cl)cc3[nH]2)C(C)C)cc1)C(C)C [Compound 92] | 0.56 | 110 | 27 |  |  | 
14 | CC[C@@]1(O)C(=O)OCc2c1cc1n(c2=O)Cc2c-1nc1cc(F)c(C)c3c1c2[C@@H](NC(=O)OCc1ccc(NC(=O)[C@H](CCCNC(N)=O)NC(=O)[C@@H](NC(=O)CN2CCN(CC(=O)O)CCN(CC(=O)NCCOCCOCCOCCOCCC(=O)NCCNc4ncc(-c5cc(C)cc(F)c5)c(N5CCC(N)CC5)c4-c4nc5ccc(Cl)cc5[nH]4)CC2)C(C)C)cc1)CC3 [Compound 93] |  |  |  | 0.48 | 130 | 4.5
